# Measurements published in the Kinase Knowledgebase extract (Sharma et al. 2016).
# pIC50: −log10 of the molar value.
# Target: MAPK14 (UniProt Q16539)
# Experiment: Enzyme Assay
# Chain of MAPK14 (Q16539 whole entry, looked up): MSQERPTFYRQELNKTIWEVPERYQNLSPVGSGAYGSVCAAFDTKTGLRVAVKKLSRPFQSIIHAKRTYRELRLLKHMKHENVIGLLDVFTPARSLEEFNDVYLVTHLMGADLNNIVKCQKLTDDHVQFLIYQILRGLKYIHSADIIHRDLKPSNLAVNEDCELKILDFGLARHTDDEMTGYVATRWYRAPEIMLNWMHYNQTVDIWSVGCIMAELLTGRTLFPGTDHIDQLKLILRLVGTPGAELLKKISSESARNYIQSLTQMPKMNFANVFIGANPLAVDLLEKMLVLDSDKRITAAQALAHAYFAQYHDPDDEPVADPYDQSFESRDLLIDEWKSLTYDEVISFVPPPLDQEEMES
row,SMILES,pIC50
1,O=C(Cn1ccnc1)Nc1cnc(OCc2c(Cl)cccc2Cl)cn1,> 4.70
2,CC(C)(C)c1cc(NC(=O)Nc2ccc(F)c(COc3cnccn3)c2)n(-c2nc3ccccc3s2)n1,> 4.70
3,Nc1cnc(OCc2c(Cl)cccc2Cl)cn1,> 3.70
4,Nc1ncccc1OCc1c(F)cc(F)cc1F,> 3.00
5,O=C(Nc1ccc(F)c(COc2cnccn2)c1)Nc1n[nH]cc1-c1ccccc1,> 4.70
6,Cc1cccc(COc2cccnc2N)c1F,> 3.00
7,O=C(Nc1ccc(Cl)c(COc2cccnc2)c1)c1ccncc1,> 3.70
8,CC(C)(C)c1cc(NC(=O)Nc2ccc(F)c(COc3cnccn3)c2)n(-c2ccc(S(C)(=O)=O)cc2)n1,> 5.70
9,c1cc(COc2cnccn2)cc(Nc2nc3ccccc3o2)c1,> 3.70
10,O=C(NCCO)c1cnc(OCc2c(Cl)cccc2Cl)cn1,> 3.00
11,Clc1ncccc1OCc1ccccc1,> 2.70
12,Nc1ncccc1OCc1cccc(C(=O)NCC2CC2)c1,> 3.00
13,CC(C)(C)c1cc(NC(=O)Oc2cccc(COc3cnccn3)c2)n(-c2ccccc2)n1,> 3.70
14,Nc1ncccc1OCc1cccc2ccoc12,> 3.00
15,CC(C)(C)c1ccc(C(=O)Nc2ccc(F)c(COc3cnccn3)c2)cc1,> 4.70
16,O=C(Nc1ccc(F)c(COc2cnccn2)c1)Nc1cc(C2CCOCC2)nn1-c1ccc(F)cc1,> 5.70
17,O=C(Nc1ccccc1)C(=O)Nc1ccc(Cl)c(COc2cccnc2)c1,> 5.70
18,CC(C)(C)c1ccc2[nH]cc(CC(=O)Nc3ccc(F)c(COc4cnccn4)c3)c2c1,> 3.70
19,O=C(Nc1ccc(F)c(COc2cnccn2)c1)c1cccc(Oc2ccccc2)c1,> 5.70
20,CC(C)(C)c1cc(NC(=O)Nc2ccc(F)c(COc3cnccn3)c2)n(-c2ccc(Cl)cc2)n1,> 5.70
21,Nc1ncccc1OCc1c(F)cccc1Cl,> 3.00

row,SMILES,pIC50
1,O=C(Nc1ccc(Cl)c(COc2cnccn2)c1)c1ccccc1,> 4.70
2,NC(=O)Nc1ccc(Cl)c(COc2cccnc2)c1,> 4.70
3,Nc1ncccc1OCc1cccc(Cl)c1,> 3.00
4,Cc1cc(C)cc(COc2cccnc2N)c1,> 3.70
5,O=C(Nc1ccc(F)c(COc2cnccn2)c1)Nc1cc(C2CCCO2)nn1-c1ccc(F)cc1 (stereo not drawn),> 5.70
6,O=C(Nc1ccc(F)c(COc2cnccn2)c1)Nc1nc(-c2ccccc2)cs1,> 4.70
7,Nc1ncccc1OCc1cccc(-c2ccccc2)c1,> 3.70
8,Nc1ncccc1OCc1ccccc1CS(=O)(=O)c1ccccc1,> 3.00
9,Nc1ncccc1OCc1ccc(F)c(F)c1,> 3.00
10,Nc1ncccc1OCc1ccc(F)cc1Cl,> 3.00
11,CN1CCC(CC(=O)Nc2cnc(OCc3c(Cl)cccc3Cl)cn2)CC1,> 3.70
12,O=S(=O)(c1ccccc1)N(c1ccc(Cl)c(COc2cccnc2)c1)S(=O)(=O)c1ccccc1,> 3.00
13,O=C(Nc1ccc(F)c(COc2cccnc2)c1)c1cncc(N2CCOCC2)n1,> 4.70
14,O=C(Nc1cccc(COc2cccnc2)c1)c1ccccc1,> 3.70
15,c1cncc(OCc2cccc3ccccc23)c1,> 3.00
16,O=C(Nc1ccc(F)c(COc2cnccn2)c1)c1ccc(-c2ccccc2)cc1,> 3.70
17,Nc1ncccc1OCc1cccc(OC(F)(F)F)c1,> 2.00
18,CC(C)(CO)NC(=O)Nc1cnc(OCc2c(Cl)cccc2Cl)cn1,> 5.70
19,CNc1cnc(OCc2c(Cl)cccc2Cl)cn1,> 3.70
20,NS(=O)(=O)CCNC(=O)c1cnc(OCc2c(Cl)cccc2Cl)cn1,> 3.00
21,O=C(Nc1ccc(F)c(COc2cnccn2)c1)Nc1cc(-c2ccc(Cl)cc2)nn1-c1ccccc1,> 5.70

row,SMILES,pIC50
1,CC(C)(Cc1ccncc1)NC(=O)c1cnc(OCc2c(Cl)cccc2Cl)cn1,> 4.70
2,Cc1ccc2ccccc2c1COc1cccnc1N,> 4.00
3,Clc1cccc(Cl)c1COc1cnccn1,> 3.70
4,CC(C)(C)c1cccc(C(=O)Nc2ccc(F)c(COc3cnccn3)c2)c1,> 5.70
5,C=CS(=O)(=O)Nc1cnc(OCc2c(Cl)cccc2Cl)cn1,> 3.70
6,CC(C)(C)c1cc(NC(=O)Nc2ccc(F)c(COc3cnccn3)c2)n(-c2ccccc2)n1,> 5.70
7,Cc1nc(-c2cc(C(=O)Nc3ccc(F)c(COc4cnccn4)c3)no2)cs1,> 3.70
8,CC1(C(=O)Nc2cnc(OCc3c(Cl)cccc3Cl)cn2)CC1,> 3.70
9,CCN(CC)C(=O)Nc1cnc(OCc2c(Cl)cccc2Cl)cn1,> 3.70
10,CC(C)(C)C(=O)Nc1cnc(OCc2c(Cl)cccc2Cl)cn1,> 3.70
11,Nc1ncccc1OCn1nnc2ccccc21,> 3.00
12,C[S+]([O-])c1nnc(NC(=O)Nc2ccc(F)c(COc3cnccn3)c2)s1 (stereo not drawn),> 3.00
13,O=C(Nc1ccc(F)c(COc2cnccn2)c1)c1nnc(-c2ccccc2)o1,> 5.70
14,O=C(Nc1ccccc1)Nc1ccc(Cl)c(COc2cccnc2)c1,> 4.70
15,Nc1nccnc1OCc1cccc2ccccc12,> 3.00
16,CC(C)(CO)C(=O)Nc1cnc(OCc2c(Cl)cccc2Cl)cn1,> 3.70
17,O=C(Nc1ccc(Cl)c(COc2cccnc2)c1)Oc1ccccc1,> 4.70
18,O=C(Nc1cnc(OCc2c(Cl)cccc2Cl)cn1)N1CCOCC1,> 5.70
19,O=C(Nc1ccc(F)c(COc2cnccn2)c1)Nc1cc(-c2ccccc2)nn1-c1ccccc1,> 5.70

# Further lines, results first:
row,pIC50,SMILES
1,> 5.70,O=C(Nc1ccc(F)c(COc2cnccn2)c1)Nc1nnc(Cc2ccccc2)s1
2,> 5.70,Cc1cc(-n2nc(C(C)(C)C)cc2NC(=O)Nc2ccc(F)c(COc3cnccn3)c2)nc(C)n1
3,> 5.70,O=C(Nc1ccc(F)c(COc2cccnc2)c1)c1cc(F)cc(N2CCOCC2)c1
4,> 3.70,CC(C)(C)c1ccc(-n2nc(C3CC3)cc2NC(=O)Nc2ccc(F)c(COc3cnccn3)c2)cc1
5,> 4.70,CC(C)c1nnc(NC(=O)Nc2ccc(F)c(COc3cnccn3)c2)s1
6,> 4.70,O=C(Nc1ccc(Cl)c(COc2cccnc2)c1)c1ccccc1
7,> 5.70,O=C(Nc1ccc(Cl)c(COc2cnccn2)c1)c1ccnc(N2CCOCC2)c1
8,> 3.70,O=C(Nc1ccc(Cl)c(COc2cccnc2)c1)c1cccc(F)c1
9,> 3.00,Nc1ncc(OCc2cccc3ccccc23)nc1Br
10,> 5.70,CC(C)(C)c1cc(NC(=O)Nc2ccc(Cl)c(COc3cccnc3)c2)n(-c2ccccc2)n1
11,> 3.70,O=C(Nc1ccc(F)c(COc2cccnc2)c1)c1ccccc1
12,> 3.00,O=C(Nc1ccc(F)c(COc2cnccn2)c1)c1cc(On2nnc3ccccc32)nc(Cl)n1
13,> 3.00,Nc1nccnc1OCc1c(Cl)cccc1Cl
14,> 4.70,CC(C)(C)c1cc(C(=O)Nc2ccc(F)c(COc3cnccn3)c2)n(Cc2ccc(F)cc2)n1
15,> 3.00,Nc1ncc(OCc2ccccc2)nc1Br
16,> 4.00,Nc1ncccc1OCc1ccccc1C(F)(F)F
17,> 4.70,CC(C)(C)c1ccccc1NC(=O)Nc1ccc(F)c(COc2cccnc2)c1
18,> 4.70,CC(Nc1cnc(OCc2c(Cl)cccc2Cl)cn1)c1ccccc1 (stereo not drawn)
19,> 3.00,CCNC(=O)c1cnc(OCc2c(Cl)cccc2Cl)cn1

row,pIC50,SMILES
1,> 3.70,O=C(Nc1ccc(F)c(COc2cnccn2)c1)Nc1ncc(-c2ccc(Cl)cc2)s1
2,> 3.00,Nc1ccncc1OCc1cccc2ccccc12
3,> 4.70,O=C(Nc1ccc(F)c(COc2cnccn2)c1)c1ccc(=O)n(Cc2ccccc2)c1
4,> 4.70,O=C(Nc1cccc(COc2cccnc2)c1)c1cc(F)cc(N2CCOCC2)c1
5,> 3.70,O=C(CN1CCCCC1)Nc1cnc(OCc2c(Cl)cccc2Cl)cn1
6,> 5.70,CC(CO)(CO)NC(=O)c1cnc(OCc2c(Cl)cccc2Cl)cn1
7,> 4.70,CN1CCN(CC(=O)Nc2cnc(OCc3c(Cl)cccc3Cl)cn2)CC1
8,> 5.70,CC(C)(C)c1cc(C(=O)Nc2ccc(F)c(COc3cnccn3)c2)cc(C(C)(C)C)c1
9,> 5.70,CC(C)(C)c1cc(NC(=O)Nc2ccc(F)c(COc3cnccn3)c2)n(-c2ccncc2)n1
10,> 4.70,CC(C)(C)n1nc(-c2ccccc2)cc1NC(=O)Nc1ccc(F)c(COc2cnccn2)c1
11,> 3.00,c1cc(COc2cccnc2)cc(COc2cccnc2)c1
12,> 3.70,Nc1ncccc1OCc1ccc(Cl)c(F)c1
13,> 3.00,Nc1cccc(COc2cncc(Cl)n2)c1
14,> 3.70,Clc1cccc(Cl)c1COc1cnc(N2CCOCC2)cn1
15,> 5.70,CC(C)(C)c1cc(NC(=O)Nc2ccc(F)c(COc3cnccn3)c2)n(Cc2ccccc2)n1
16,> 5.70,Cc1nc(-c2cccc(C(=O)Nc3ccc(F)c(COc4cnccn4)c3)c2)cs1
17,> 3.00,COc1ccccc1COc1cccnc1N
18,> 3.70,O=C(CN1CCOCC1)Nc1cnc(OCc2c(Cl)cccc2Cl)cn1
19,> 5.70,O=C(Nc1ccc(F)c(COc2cnccn2)c1)Nc1nnc(CC2CC2)s1

row,pIC50,SMILES
1,> 3.00,Nc1ncccc1OCc1csc2ccccc12
2,> 5.70,O=C(Nc1ccc(Cl)c(COc2cccnc2)c1)c1ccnc(N2CCOCC2)c1
3,> 3.70,O=C(Nc1ccc(F)c(COc2cnccn2)c1)Nc1nnc(-c2ccccc2)s1
4,> 4.70,CC(C)c1nnc(NC(=O)Nc2ccc(F)c(COc3cccnc3)c2)s1
5,> 3.70,OCCNc1ccc(OCc2ccccc2)cn1
6,> 5.70,CC(C)(C)c1cccc(C(=O)Nc2ccc(Cl)c(COc3cccnc3)c2)c1
7,> 3.00,O=C1c2ccccc2CN1c1ccc(F)c(COc2cccnc2)c1
8,> 4.70,CC(C)(C)c1csc(NC(=O)Nc2ccc(F)c(COc3cnccn3)c2)n1
9,> 4.70,CC(C)(C)c1cc(C(=O)Nc2ccc(F)c(COc3cnccn3)c2)n(Cc2ccccc2)n1
10,> 3.00,Nc1ccc(Cl)c(COc2cnccn2)c1
11,> 5.70,O=C(Nc1ccc(F)c(COc2cnccn2)c1)Nc1cc(-c2ccc(Cl)cc2)nn1-c1ccc(F)cc1
12,> 4.70,O=C(Nc1ccc(Cl)c(COc2cccnc2)c1)c1cccc(C(F)(F)F)c1
13,> 5.70,O=C(Nc1ccc(F)c(COc2cnccn2)c1)Nc1nnc(C2CCCO2)s1 (stereo not drawn)
14,> 3.00,O=C1c2ccccc2C(=O)N1c1ccc(Cl)c(COc2cccnc2)c1
15,> 5.70,Cc1ccc(-n2nc(C(C)(C)C)cc2NC(=O)Nc2ccc(F)c(COc3cnccn3)c2)cc1
16,> 3.00,COc1cc(C(=O)Nc2ccc(F)c(COc3cnccn3)c2)nc(Cl)n1
17,> 3.00,Nc1ncccc1OCc1cccc(Cl)c1F
18,> 3.00,Nc1ncccc1OCc1cccc(C(=O)NCc2cccc3ccccc23)c1
19,> 3.00,Nc1ncccc1OCc1ccc(F)cc1F
